Measurements published in publication PMC6155272, “Chroman-4-One Derivatives Targeting Pteridine Reductase 1 and Showing Anti-Parasitic Activity” (Molecules : A Journal of Synthetic Chemistry and Natural …, 2017).

Experiments:
[1] = test system: T. brucei bloodstream forms; test: Activity against T. brucei bloodstream forms (resazurin-based assay); format: cell-based, Trypanosoma brucei; settings: for EC50 / inhibition at 10 µM: bloodstream form; for EC50: dose response; for inhibition at 10 µM: read-out: % inh. T. brucei (10 μM); for selectivity index (SI): ratio between CC50 toward THP-1 and EC50 toward T. brucei
Protocol: The efficacy of compounds against T. brucei bloodstream forms was evaluated using a modified resazurin-based assay previously described in literature.

[2] = Cytotoxicity against THP-1 macrophages (MTT); format: cell-based; settings: human, THP-1-derived macrophages; THP-1 macrophage-like cells; NOAEL = no observed adverse effect level; read-out: CC50 ± SD or NOAEL
Protocol: The effect of compounds 1–3 on THP-1-derived macrophages was assessed by the colorimetric (MTT) assay (3-(4,5-dimethylthiazol-2-yl)-2,5-diphenyl tetrazolium bromide).

W1-38 cells = test: Cytotoxicity assay against W1-38 cells (CellTiter-Glo); format: cell-based; settings: 100% = not cytotoxic, 0% = cytostatic
Protocol: The assays were performed using the CellTiter-Glo assay from Promega (Madison, AL, USA). The assay detects cellular adenosine triphosphate (ATP) content with the amount of ATP being directly proportional to the number of cells present. The A549 cells were obtained from DSMZ (German Collection of Microorganisms and Cell Cultures, Braunschweig, Germany) and W1-38 cells were obtained from ATCC (ATCC® CCL-75™) and were grown in Dulbecco's Modified Eagle Medium (DMEM) from Capricorn Scientific GmbH, Ebsdorfergrund, Germany with fetal bovine serum (FBS) (10% v/v) from Capricorn Scientific GmbH, Ebsdorfergrund, Germany, streptomycin (100 μg/mL) and penicillin G (100 U/mL).

[3] = test system: 786-O (renal carcinoma) cell line; test: Mitochondrial toxicity (MitoTracker Red CMXRos uptake, high content imaging); format: cell-based; parameters: key to % Mitochondrial toxicity: NI: no inhibition; settings: for % Mitochondrial toxicity: 10 µM, 100% = mitotoxic, 0% = not mitotoxic; for IC50: Homo sapiens, 786-0, read-out: IC50 Mitochondria
Protocol: This made use of MitoTracker® Red chloromethyl-X-rosamine (CMXRos) uptake and High Content Imaging to monitor compound mediated mitochondrial toxicity in the 786-O (renal carcinoma) cell line. Cells were maintained using Roswell Park Memorial Institute-1640 (RPMI-1640) medium from Capricorn Scientific GmbH, Ebsdorfergrund, Germany containing 2 mM glutamine, FBS (10% v/v), streptomycin (100 μg/mL) and penicillin G (100 U/mL).

Aurora B kinase = molecular target: T1, Aurora B kinase (Homo sapiens, UniProt Q96GD4); test: Aurora B kinase assay (ADP-Glo); format: biochemical
T1 construct: purchased Promega
T1 sequence (Q96GD4 whole entry): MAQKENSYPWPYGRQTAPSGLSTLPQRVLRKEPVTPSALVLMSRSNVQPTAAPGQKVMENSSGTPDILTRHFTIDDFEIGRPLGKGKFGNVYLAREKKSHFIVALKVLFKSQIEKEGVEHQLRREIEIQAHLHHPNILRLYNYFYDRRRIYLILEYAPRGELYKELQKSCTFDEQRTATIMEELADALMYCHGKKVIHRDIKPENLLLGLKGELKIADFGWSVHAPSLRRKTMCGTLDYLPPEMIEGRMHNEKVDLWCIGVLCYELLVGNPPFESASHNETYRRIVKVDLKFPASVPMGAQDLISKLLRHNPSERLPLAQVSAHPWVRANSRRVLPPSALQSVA
Description: This assay made use of the ADP-Glo Kinase Enzyme System from Promega (Madison, AL, USA), which is a bioluminescent assay that employs firefly luciferase in a coupled-enzyme assay format to enable detection of adenosine diphosphate (ADP) levels from ATPase assays.

hERG channel = molecular target: T2, hERG channel (Homo sapiens, UniProt Q12809); test: hERG fluorescence polarisation assay (Predictor); format: binding; settings: for inhibition at 10 µM: human
T2 construct: purchased Invitrogen
T2 sequence (Q12809 whole entry): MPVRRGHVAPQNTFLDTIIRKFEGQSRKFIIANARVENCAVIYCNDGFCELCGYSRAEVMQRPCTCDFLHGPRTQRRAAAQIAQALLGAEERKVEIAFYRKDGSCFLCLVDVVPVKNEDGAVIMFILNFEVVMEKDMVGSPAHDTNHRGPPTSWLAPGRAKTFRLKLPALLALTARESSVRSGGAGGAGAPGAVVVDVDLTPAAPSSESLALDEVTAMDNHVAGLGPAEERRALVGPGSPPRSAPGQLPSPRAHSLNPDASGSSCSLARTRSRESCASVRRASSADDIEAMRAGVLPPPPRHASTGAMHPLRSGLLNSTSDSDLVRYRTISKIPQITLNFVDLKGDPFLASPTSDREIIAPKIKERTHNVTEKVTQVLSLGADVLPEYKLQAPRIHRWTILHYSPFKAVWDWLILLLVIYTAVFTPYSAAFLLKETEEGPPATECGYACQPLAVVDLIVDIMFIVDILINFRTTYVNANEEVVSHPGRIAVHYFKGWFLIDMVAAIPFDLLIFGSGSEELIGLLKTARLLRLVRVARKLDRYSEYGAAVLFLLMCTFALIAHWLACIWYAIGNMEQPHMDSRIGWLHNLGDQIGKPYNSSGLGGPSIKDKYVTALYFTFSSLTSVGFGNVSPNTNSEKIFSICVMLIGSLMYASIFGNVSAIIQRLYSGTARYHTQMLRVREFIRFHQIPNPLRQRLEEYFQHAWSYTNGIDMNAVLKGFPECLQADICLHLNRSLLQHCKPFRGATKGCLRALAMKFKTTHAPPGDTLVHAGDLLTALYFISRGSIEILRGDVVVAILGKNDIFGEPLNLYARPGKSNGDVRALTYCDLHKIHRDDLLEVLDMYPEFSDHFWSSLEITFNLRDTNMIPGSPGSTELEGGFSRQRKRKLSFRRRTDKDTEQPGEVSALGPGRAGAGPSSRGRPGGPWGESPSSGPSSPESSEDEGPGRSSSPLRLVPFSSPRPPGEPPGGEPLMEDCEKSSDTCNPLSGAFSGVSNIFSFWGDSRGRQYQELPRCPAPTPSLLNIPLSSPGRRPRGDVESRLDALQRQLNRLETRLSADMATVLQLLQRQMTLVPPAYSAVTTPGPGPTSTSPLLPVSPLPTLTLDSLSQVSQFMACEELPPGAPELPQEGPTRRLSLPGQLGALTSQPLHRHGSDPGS
Description: The assay made use of Invitrogen’s Predictor™ hERG Fluorescence Polarisation Assay. This uses a membrane fraction containing hERG channel (Predictor™ hERG Membrane) and a high-affinity red fluorescent hERG channel ligand, or “tracer” (Predictor™ hERG Tracer Red), whose displacement by test compounds can be determined in a homogenous, Fluorescence Polarisation (FP)-based format.

CYP1A2 = molecular target: T3, CYP1A2 (Homo sapiens, UniProt P05177); test: Cytochrome P450 1A2 assay (P450-Glo); format: in vitro ADME; settings: for inhibition at 10 µM: human
T3 construct: purchased Promega; host or cells: baculovirus-infected insect cells
T3 sequence (P05177 1-516): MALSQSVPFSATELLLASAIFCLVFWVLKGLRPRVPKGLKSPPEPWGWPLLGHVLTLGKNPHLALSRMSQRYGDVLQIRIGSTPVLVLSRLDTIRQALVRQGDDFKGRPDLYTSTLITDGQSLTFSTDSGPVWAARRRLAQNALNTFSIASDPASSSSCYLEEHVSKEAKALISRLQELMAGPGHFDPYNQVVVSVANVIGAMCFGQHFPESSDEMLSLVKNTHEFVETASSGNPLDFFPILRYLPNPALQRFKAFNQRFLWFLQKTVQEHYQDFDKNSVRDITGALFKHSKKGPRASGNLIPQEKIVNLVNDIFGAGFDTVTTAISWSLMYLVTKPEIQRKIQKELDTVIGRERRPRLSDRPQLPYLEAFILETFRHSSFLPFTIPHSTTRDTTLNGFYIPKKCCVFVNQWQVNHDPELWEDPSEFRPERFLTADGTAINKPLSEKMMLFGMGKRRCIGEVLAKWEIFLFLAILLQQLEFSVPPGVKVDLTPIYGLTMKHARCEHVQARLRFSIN
Description: (§1) These assays made use of the PromegaP450-Glo™ (Madison, AL, USA) assay platform. Each CYP450 assay includes microsomal preparations of cytochromes from baculovirus-infected insect cells.

CYP2C9 = molecular target: T4, CYP2C9 (Homo sapiens, UniProt P11712); test: Cytochrome P450 2C9 assay (P450-Glo); format: in vitro ADME; settings: for inhibition at 10 µM: human
T4 construct: purchased Promega; host or cells: baculovirus-infected insect cells
T4 sequence (P11712 whole entry): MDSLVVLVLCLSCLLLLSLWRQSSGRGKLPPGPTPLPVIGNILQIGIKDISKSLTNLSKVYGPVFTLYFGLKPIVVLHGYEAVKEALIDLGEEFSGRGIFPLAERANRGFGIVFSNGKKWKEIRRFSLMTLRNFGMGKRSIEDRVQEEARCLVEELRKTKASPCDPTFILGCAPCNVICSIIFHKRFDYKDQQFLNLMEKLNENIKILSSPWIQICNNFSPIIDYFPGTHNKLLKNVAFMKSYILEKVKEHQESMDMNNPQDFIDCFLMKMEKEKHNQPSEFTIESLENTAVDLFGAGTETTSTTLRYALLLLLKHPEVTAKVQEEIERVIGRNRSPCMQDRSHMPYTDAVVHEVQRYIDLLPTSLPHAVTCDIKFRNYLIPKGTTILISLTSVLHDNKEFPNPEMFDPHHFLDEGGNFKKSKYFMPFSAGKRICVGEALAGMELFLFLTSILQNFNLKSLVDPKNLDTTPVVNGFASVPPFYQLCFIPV
Description: as §1

CYP2D6 = molecular target: T5, CYP2D6 (Homo sapiens, UniProt P10635); test: Cytochrome P450 2D6 assay (P450-Glo); format: in vitro ADME; settings: for inhibition at 10 µM: human
T5 construct: purchased Promega; host or cells: baculovirus-infected insect cells
T5 sequence (P10635 whole entry): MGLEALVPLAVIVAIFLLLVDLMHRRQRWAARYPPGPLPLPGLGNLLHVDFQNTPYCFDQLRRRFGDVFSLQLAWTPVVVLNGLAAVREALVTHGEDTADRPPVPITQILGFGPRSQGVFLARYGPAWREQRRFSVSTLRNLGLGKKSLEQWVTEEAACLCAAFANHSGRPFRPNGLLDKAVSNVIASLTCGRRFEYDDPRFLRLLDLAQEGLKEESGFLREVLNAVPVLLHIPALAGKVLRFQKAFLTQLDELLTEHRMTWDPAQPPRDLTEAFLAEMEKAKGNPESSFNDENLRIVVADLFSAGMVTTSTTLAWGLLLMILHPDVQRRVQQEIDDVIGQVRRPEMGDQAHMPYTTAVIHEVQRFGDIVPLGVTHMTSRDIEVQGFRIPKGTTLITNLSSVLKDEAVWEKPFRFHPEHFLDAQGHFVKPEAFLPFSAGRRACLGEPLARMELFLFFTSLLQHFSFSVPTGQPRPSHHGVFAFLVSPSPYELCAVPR
Description: as §1

CYP3A4 = molecular target: T6, CYP3A4 (Homo sapiens, UniProt P08684); test: Cytochrome P450 3A4 assay (P450-Glo); format: in vitro ADME; settings: for inhibition at 10 µM: human
T6 construct: purchased Promega; host or cells: baculovirus-infected insect cells
T6 sequence (P08684 whole entry): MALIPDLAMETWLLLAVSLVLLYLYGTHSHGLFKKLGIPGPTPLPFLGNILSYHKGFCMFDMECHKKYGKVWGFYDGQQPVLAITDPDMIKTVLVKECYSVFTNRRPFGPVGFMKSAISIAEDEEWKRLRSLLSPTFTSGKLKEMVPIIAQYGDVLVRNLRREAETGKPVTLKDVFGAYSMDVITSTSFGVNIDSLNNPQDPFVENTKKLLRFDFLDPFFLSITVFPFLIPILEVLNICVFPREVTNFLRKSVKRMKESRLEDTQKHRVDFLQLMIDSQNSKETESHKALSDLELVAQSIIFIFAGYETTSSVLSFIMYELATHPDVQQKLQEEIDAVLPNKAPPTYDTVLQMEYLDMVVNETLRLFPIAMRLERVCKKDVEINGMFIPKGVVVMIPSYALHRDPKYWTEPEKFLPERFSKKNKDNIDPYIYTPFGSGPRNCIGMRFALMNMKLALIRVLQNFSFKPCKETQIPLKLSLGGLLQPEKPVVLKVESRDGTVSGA
Description: as §1

SMILES	EC50 ([1]; Trypanosoma brucei)	inhibition at 10 µM ([1]; Trypanosoma brucei)	EC50 [1]	selectivity index (SI) [1]	CC50 [2]	% Cell growth W1-38 (10 μM) (W1-38 cells)	% Mitochondrial toxicity [3]	IC50 [3]	inhibition at 10 µM (Aurora B kinase)	IC50 (hERG channel)	inhibition at 10 µM (hERG channel)	IC50 (CYP1A2)	inhibition at 10 µM (CYP1A2)	IC50 (CYP2C9)	inhibition at 10 µM (CYP2C9)	IC50 (CYP2D6)	inhibition at 10 µM (CYP2D6)	IC50 (CYP3A4)	inhibition at 10 µM (CYP3A4)
O=C1CC(c2cccc(O)c2)Oc2ccc(O)cc21 (centres unmarked) [Compound 1]	12.6 ± 1.69 µM	44%	12.6 ± 1.7 µM	greater than 7	> 100 µM	108%	6%	> 100 µM	< 15%	> 100 µM	7%	29 µM	3%	72 µM	< 15%	85 µM	< 15%	80 µM	< 15%
O=C1CC(c2ccc(O)cc2)Oc2ccc(O)cc21 (centres unmarked) [Compound 2]	13 ± 1.82 µM	49%	13 ± 1.8 µM	higher than 7	> 100 µM	91%	NI	> 100 µM	< 15%	> 100 µM	14%	59 µM	< 15%	> 100 µM	< 15%	94 µM	< 15%	> 100 µM	< 15%
O=C1CC(c2ccc(O)c(O)c2)Oc2ccc(O)cc21 (centres unmarked) [Compound 3]	34.8 ± 1.1 µM	14%	34.8 ± 1.1 µM	–	> 100 µM	86%	NI	> 100 µM	< 15%	64 µM	20%	62 µM	< 15%	4 µM	< 15%	> 100 µM	< 15%	65 µM	< 15%
